Where two headings read alike, the source gives them in different places. Bounds are passed on as bounds.

Assay [1] deals with NR1/NR2B (Homo sapiens (Human), UniProt Q13224). Kind of assay: Cell assay: FDSS Ca2+ influx inhibition in HEK293 cells expressing NR1/NR2B.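 Also: Fluo-8 Ca2+ signal read on Hamamatsu FDSS 6000 after glutamate, glycine and Ca2+ challenge following 10 min compound preincubation, end/baseline fluorescence ratio compared with MK801 control.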
The target of assay [2] is NR1/NR2B (Homo sapiens (Human), UniProt Q05586+Q13224). The description is as above. To be noted: Ca2+ influx.
Chain of NR1/NR2B (Homo sapiens (Human), UniProt Q05586+Q13224) (Q13224 27-1484, other chains not shown): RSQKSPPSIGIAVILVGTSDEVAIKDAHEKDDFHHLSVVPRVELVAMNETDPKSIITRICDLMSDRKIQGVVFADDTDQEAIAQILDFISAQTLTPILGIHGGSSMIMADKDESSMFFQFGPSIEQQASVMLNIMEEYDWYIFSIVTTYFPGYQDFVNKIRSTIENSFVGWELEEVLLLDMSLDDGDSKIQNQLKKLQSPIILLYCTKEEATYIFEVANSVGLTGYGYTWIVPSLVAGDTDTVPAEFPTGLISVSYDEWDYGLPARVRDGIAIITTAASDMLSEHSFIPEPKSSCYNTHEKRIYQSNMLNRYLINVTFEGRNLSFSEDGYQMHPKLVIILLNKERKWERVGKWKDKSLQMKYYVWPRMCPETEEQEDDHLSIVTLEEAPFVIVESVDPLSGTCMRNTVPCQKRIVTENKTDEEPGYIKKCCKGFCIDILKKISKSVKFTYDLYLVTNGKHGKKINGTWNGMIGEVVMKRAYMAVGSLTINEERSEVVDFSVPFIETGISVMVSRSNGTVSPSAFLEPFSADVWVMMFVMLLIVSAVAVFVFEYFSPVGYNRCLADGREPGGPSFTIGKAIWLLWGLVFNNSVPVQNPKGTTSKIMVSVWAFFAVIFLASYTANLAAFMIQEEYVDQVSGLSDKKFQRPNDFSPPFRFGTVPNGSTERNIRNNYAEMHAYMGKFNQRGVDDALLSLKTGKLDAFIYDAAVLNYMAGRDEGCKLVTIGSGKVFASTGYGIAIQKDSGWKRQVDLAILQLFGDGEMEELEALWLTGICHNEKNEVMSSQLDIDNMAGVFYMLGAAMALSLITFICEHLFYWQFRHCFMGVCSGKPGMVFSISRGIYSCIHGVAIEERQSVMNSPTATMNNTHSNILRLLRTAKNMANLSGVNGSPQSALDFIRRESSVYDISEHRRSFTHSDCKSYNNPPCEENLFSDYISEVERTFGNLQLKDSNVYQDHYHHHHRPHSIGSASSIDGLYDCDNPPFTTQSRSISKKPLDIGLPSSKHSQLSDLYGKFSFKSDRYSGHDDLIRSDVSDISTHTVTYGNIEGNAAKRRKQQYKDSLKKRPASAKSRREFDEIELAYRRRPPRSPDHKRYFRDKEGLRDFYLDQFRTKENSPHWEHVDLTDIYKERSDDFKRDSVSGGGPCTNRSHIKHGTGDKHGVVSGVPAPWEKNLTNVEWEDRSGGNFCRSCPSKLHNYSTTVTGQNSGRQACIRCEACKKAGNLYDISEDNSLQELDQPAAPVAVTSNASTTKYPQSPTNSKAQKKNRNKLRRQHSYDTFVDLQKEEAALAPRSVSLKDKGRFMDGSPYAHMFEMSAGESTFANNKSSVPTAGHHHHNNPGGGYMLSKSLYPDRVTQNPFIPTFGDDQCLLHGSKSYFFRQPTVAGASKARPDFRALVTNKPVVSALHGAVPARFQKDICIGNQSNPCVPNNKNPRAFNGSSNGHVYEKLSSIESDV
Where [3] appears, read: read-out: Binned Activity, HEK293 cells expressing NR1/NR2B, Ca2+ influx, binned NR2B NAM IC50.
[4] abbreviates: Binned Activity, HEK293 cells expressing NR1/NR2B, binned NR2B NAM IC50.
The mark [5] stands for this setting: NR2B NAM IC50, HEK293 cells expressing NR1/NR2B.

Chain of NR1/NR2B (Homo sapiens (Human), UniProt Q13224) (Q13224 27-1484, other chains not shown): as above

Take `O=C(CN1CC2CC(Cc3ccccc3)CC2C1)c1ccc(O)c(F)c1` (centres unmarked) [Example 299, 2-{5-benzyl-octahydrocyclopenta[c]pyrrol-2-yl}-1-(3-fluoro-4-hydroxyphenyl) ethan-1-one]: the values for the IC50 at NR1/NR2B [1] (read-out: Binned Activity) and at NR1/NR2B [1] (read-out: NR2B NAM IC50) were < 100 nM and 78.1 nM, respectively.
With `Oc1ccc([C@H](O)CN2C[C@@H]3C[C@@](O)(Cc4ccccc4)C[C@@H]3C2)cc1` [Example 143, (3aR,5S,6aS)-5-benzyl-2-((S)-2-hydroxy-2-(4-hydroxyphenyl)ethyl)octa-hydrocyclopenta[c]pyrrol-5-ol], the IC50 at NR1/NR2B [1] (setting [3]) was < 100 nM.
`O=C(CN1CC2CC(CCc3ccccc3)CC2C1)c1ccc(O)cc1` (centres unmarked) [Example 323, 1-(4-hydroxyphenyl)-2-(5-phenethyl-hexahydrocyclo-penta[c]pyrrol-2(1H)-yl)ethanone]: the IC50 on NR1/NR2B [1] (setting [3]) was 100 to 1000 nM; on NR1/NR2B [1] (read-out: NR2B NAM IC50, HEK293 cells expressing NR1/NR2B, Ca2+ influx) it was 426 nM.
As for `O=c1ccc(C(O)CN2C[C@@H]3C[C@@](O)(Cc4ccccc4)C[C@@H]3C2)n[nH]1` (mixture of isomers) [Example 158, rac-6-(2-((3aR,5r,6aS)-5-benzyl-5-hydroxyhexahydrocyclo-penta[c]pyrrol-2(1H)-yl)-1-hydroxyethyl)pyridazin-3(2H)-one], the IC50 against NR1/NR2B [2] (setting [4]) was > 10000 nM; on NR1/NR2B [2] (setting [5]), ≥ 10000 nM.
For the compound `Oc1ccc(C(O)CN2C[C@@H]3C[C@@](O)(Cc4ccc(F)cc4)C[C@@H]3C2)nc1` (mixture of isomers) [Example 168, rac-(3aR,5r,6aS)-5-(4-fluorobenzy)-2-(2-hydroxy-2-(5-hydroxypyridin-2-yl)ethyl)octahydrocyclo-penta[c]pyrrol-5-ol], the IC50 on NR1/NR2B [2] (setting [5]) was determined as 17.8 nM.
`Oc1ccc(C(O)CN2C[C@@H]3C[C@@](O)(Cc4cccc(F)c4F)C[C@@H]3C2)nc1` (mixture of isomers) [Example 248, rac-(3aR,5r,6aS)-5-(2,3-difluorobenzyl)-2-(2-hydroxy-2-(5-hydroxypyridin-2-yl)ethyl)octahydrocyclo-penta[c]pyrrol-5-ol]: the IC50 against NR1/NR2B [2] (setting [5]) was 47.6 nM.
Still for that read-out and setting: the figure for `COc1cccc(C[C@]2(O)C[C@H]3CN(CC(O)c4ccc(O)cn4)C[C@H]3C2)c1` (mixture of isomers) [Example 196, rac-((3aR,r,6aS)-2-(2-hydroxy-2-(5-hydroxypyridin-2-yl)ethyl)-5-(3-meth-oxybenzyl)octahydro-cyclopenta[c]pyrrol-5-ol] is 66 nM; for `CC(C(O)c1ccc(O)cc1)N1C[C@@H]2C[C@@](O)(c3ccc(C(C)(C)C)cc3)C[C@@H]2C1` (mixture of isomers) [Example 96, rac-5-(4-tert-butylphenyl)-2-[1-hydroxy-1-(4-hydroxyphenyl)propan-2-yl]-octahydrocyclopenta[c] pyrrol-5-ol] it is 10500 nM.
Take `Oc1ccc(C(O)CN2C[C@@H]3C[C@](F)(Cc4ccccc4)C[C@@H]3C2)cc1` (mixture of isomers) [Example 311, rac-4-(2-((3aR,5s,6aS)-5-benzyl-5-fluorohexahydrocyclo-penta[c]pyrrol-2(1H)-yl)-1-hydroxyethyl) phenol]: the IC50 is 100 to 1000 nM against NR1/NR2B [2] (setting [4]) and 448 nM at NR1/NR2B [2] (setting [5]).
As for `Cc1cc(F)ccc1C[C@]1(O)C[C@H]2CN(CC(O)c3ccc(O)cn3)C[C@H]2C1` (mixture of isomers) [Example 243, rac-(3aR,5r,6aS)-5-(4-fluoro-2-methylbenzyl)-2-(2-hydroxy-2-(5-hydroxypyridin-2-yl)ethyl)octahydrocyclo-penta[c]pyrrol-5-ol], the IC50 on NR1/NR2B [2] (setting [5]) is 75.7 nM.
As for `CC(C)(C)c1ccc([C@]2(O)C[C@H]3CN(CC(O)c4cccc(F)c4)C[C@H]3C2)cc1` (mixture of isomers) [Example 71, rac-5-(4-tert-butylphenyl)-2-[2-(3-fluorophenyl)-2-hydroxyethyl]-octahydrocyclopenta[c] pyrrol-5-ol], the results for the IC50 against NR1/NR2B [2] (setting [4]) and at NR1/NR2B [2] (setting [5]) were > 10000 nM and ≥ 10000 nM, respectively.
With `Oc1ccc(C(O)CN2C[C@@H]3C[C@@](O)(CC4CCCCC4)C[C@@H]3C2)cc1` (mixture of isomers) [Example 209, rac-(3aR,5R,6aS)-5-(cyclohexylmethyl)-2-[2-hydroxy-2-(4-hydroxyphenyl)ethyl]-octahydrocyclopenta[c] pyrrol-5-ol], on NR1/NR2B [2] (setting [5]), the IC50 was 410 nM.
For `COc1cccc([C@]2(O)C[C@H]3CN(C(=O)Nc4cccc(Cl)c4)C[C@H]3C2)c1` [Example 15], at NR1/NR2B [2] (setting [4]), the IC50 is > 10000 nM.
Regarding `Oc1ccc(C(O)CN2C[C@@H]3C[C@@](O)(CC4CCCCC4)C[C@@H]3C2)nc1` (mixture of isomers) [Example 214, rac-6-{2-[(3aR,5R,6aS)-5-(cyclohexylmethyl)-5-hydroxy-octahydrocyclopenta[c]pyrrol-2-yl]-1-hydroxyethyl}pyridin-3-ol], the IC50 on NR1/NR2B [2] (setting [5]) is 2630 nM.
On to `CC(C(=O)c1ccc(O)cc1)N1C[C@@H]2C[C@@](O)(c3ccc(F)cc3)C[C@@H]2C1` (mixture of isomers) [Example 92, rac-2-[5-(4-fluorophenyl)-5-hydroxy-octahydrocyclopenta[c]pyrrol-2-yl]-1-(4-hydroxyphenyl)propan-1-one], for which the IC50 on NR1/NR2B [2] (setting [4]) was > 10000 nM; at NR1/NR2B [2] (setting [5]), ≥ 10000 nM.
The compound `CC(C(=O)c1ccc(O)cc1)N1C[C@@H]2C[C@](F)(Cc3ccccc3)C[C@@H]2C1` (mixture of isomers) [Example 317, rac-2-((3aR,5s,6aS)-5-benzyl-5-fluoro-hexahydrocyclopen-ta[c]pyrrol-2(1H)-yl)-1-(4-hydroxyphenyl)propan-1-one] displayed an IC50 against NR1/NR2B [2] (setting [5]) of 284 nM.
As to `OC(CN1C[C@@H]2C[C@@](O)(c3ccc(F)cc3)C[C@@H]2C1)c1ccc(Cl)cc1Cl` (mixture of isomers) [Example 76, rac-2-[2-(2,4-dichlorophenyl)-2-hydroxyethyl]-5-(4-fluorophenyl)-octahydrocyclopenta[c] pyrrol-5-ol], the IC50 on NR1/NR2B [2] (setting [4]) was > 10000 nM; on NR1/NR2B [2] (setting [5]) it was ≥ 10000 nM.
With `Oc1ccc(C(O)CN2C[C@@H]3C[C@@](O)(Cc4ccccc4)C[C@@H]3C2)nc1` (mixture of isomers) [Example 144, rac-(3aR,5r,6aS)-5-benzyl-2-(2-hydroxy-2-(5-hydroxypyridin-2-yl)ethyl)octahydrocyclo-penta[c]pyrrol-5-ol], the figures for the IC50 on NR1/NR2B [2] (setting [4]) and against NR1/NR2B [2] (setting [5]) were < 100 nM and 26.8 nM, respectively.
`Oc1ccc(C(O)CN2C[C@@H]3C[C@](F)(Cc4ccccc4)C[C@@H]3C2)cc1F` (mixture of isomers) [Example 316, rac-4-(2-((3aR,5s,6aS)-5-benzyl-5-fluoro-hexahydrocyclopen-ta[c]pyrrol-2(1H)-yl)-1-hydroxyethyl)-2-fluorophenol]: the values for the IC50 against NR1/NR2B [2] (setting [4]) and against NR1/NR2B [2] (setting [5]) were < 100 nM and 36.4 nM, respectively.
For `COc1ccc(C[C@]2(O)C[C@H]3CN(CC(O)c4ccc(O)cn4)C[C@H]3C2)cc1` (mixture of isomers) [Example 199, rac-6-{2-[(3aR,5R,6aS)-5-hydroxy-5-[(4-methoxyphenyl)methyl]-octahydrocyclopenta[c]pyrrol-2-yl]-1-hydroxyethyl}pyridin-3-ol], the IC50 on NR1/NR2B [2] (setting [5]) is 36.3 nM.
Turning to `CC(C)(O)c1ccc(C(O)CN2C[C@@H]3C[C@@](O)(c4ccccc4)C[C@@H]3C2)cc1` (mixture of isomers) [Example 69, rac-2-(2-hydroxy-2-(4-(2-hydroxypropan-2-yl)phenyl)ethyl)-5-phenyloctahydrocyclo-penta[c]pyrrol-5-ol], the IC50 on NR1/NR2B [2] (setting [4]) is > 10000 nM; at NR1/NR2B [2] (setting [5]) it was ≥ 10000 nM.
With `CC(C(O)c1ccc(O)cc1)N1C[C@@H]2C[C@@](O)(CCc3ccccc3)C[C@@H]2C1` (mixture of isomers) [Example 320, rac-2-(1-hydroxy-1-(4-hydroxyphenyl)propan-2-yl)-5-phenethyl-octahydrocyclo-panta[c]pyrrol-5-ol], on NR1/NR2B [2] (setting [5]), the IC50 turned out to be 2050 nM.

The values are drawn from patent publication US10052306B2 (LUC THERAPEUTICS, INC., priority 2013, dated 2018).
